Values after ≈ are worked out from the molar mass of the structure shown.
Assays:
Assay type in all cases: functional
Staphylococcus aureus [1] = test: Antimicrobial activity against Staphylococcus aureus ATCC 6538 by disc-diffusion method
Proteus vulgaris [2] = test: Antimicrobial activity against Proteus vulgaris ATCC 8427 by disc-diffusion method
Pseudomonas aeruginosa [3] = test: Antimicrobial activity against Pseudomonas aeruginosa ATCC 1539 by tube dilution method
[4] = system: Staphylococcus epidermidis; test: Antimicrobial activity against Staphylococcus epidermidis ATCC 12228 by disc-diffusion method
Escherichia coli [5] = test: Antimicrobial activity against Escherichia coli ATCC 8739 by disc-diffusion method
Klebsiella pneumoniae [6] = test: Antimicrobial activity against Klebsiella pneumoniae UC57 by disc-diffusion method
Staphylococcus aureus [7] = test: Antimicrobial activity against Staphylococcus aureus ATCC 6538 by tube dilution method
Escherichia coli [8] = test: Antimicrobial activity against Escherichia coli ATCC 8739 by tube dilution method
Proteus vulgaris [9] = test: Antimicrobial activity against Proteus vulgaris ATCC 8427 by tube dilution method
Klebsiella pneumoniae [10] = test: Antimicrobial activity against Klebsiella pneumoniae UC57 by tube dilution method
[11] = system: Staphylococcus epidermidis; test: Antimicrobial activity against Staphylococcus epidermidis ATCC 12228 by tube dilution method
Pseudomonas aeruginosa [12] = test: Antimicrobial activity against Pseudomonas aeruginosa ATCC 1539 by disc-diffusion method

| MIC (Pseudomonas aeruginosa [3]) [µg/mL] | MIC (Staphylococcus aureus [7]) [µg/mL] | MIC (Escherichia coli [8]) [µg/mL] | MIC (Proteus vulgaris [9]) [µg/mL] | MIC [11] [µg/mL] | SMILES | inhibition zone (IZ) (Staphylococcus aureus [1]) [mm] | inhibition zone (IZ) (Proteus vulgaris [2]) [mm] | MBC (Pseudomonas aeruginosa [3]) [µg/mL] | inhibition zone (IZ) [4] [mm] | inhibition zone (IZ) (Escherichia coli [5]) [mm] | inhibition zone (IZ) (Klebsiella pneumoniae [6]) [mm] | MBC (Staphylococcus aureus [7]) [µg/mL] | MBC (Escherichia coli [8]) [µg/mL] | MBC (Proteus vulgaris [9]) [µg/mL] | MBC (Klebsiella pneumoniae [10]) [µg/mL] | MIC (Klebsiella pneumoniae [10]) [µg/mL] | MBC [11] [µg/mL] | inhibition zone (IZ) (Pseudomonas aeruginosa [12]) [mm] |
| --- | --- | --- | --- | --- | --- | --- | --- | --- | --- | --- | --- | --- | --- | --- | --- | --- | --- | --- |
| 125 (≈ 365 µM) | – | – | – | – | COc1ccc(-c2cc(=O)c3cc(OC)c(OC)cc3o2)cc1OC | <7 | <7 | 250 (≈ 730 µM) | <7 | <7 | <7 | – | – | – | – | – | – | – |
| 31.2 (≈ 99.4 µM) | 31.2 (≈ 99.4 µM) | 45 (≈ 143 µM) | 31.2 (≈ 99.4 µM) | 62.5 (≈ 199 µM) | COc1cc2oc(-c3ccc(O)cc3)cc(=O)c2c(O)c1OC [CIRSIMARITIN] | – | – | 125 (≈ 398 µM) | – | – | – | 125 (≈ 398 µM) | 90 (≈ 286 µM) | 125 (≈ 398 µM) | 90 (≈ 286 µM) | 45 (≈ 143 µM) | 125 (≈ 398 µM) | – |
| – | – | 250 (≈ 558 µM) | – | – | O=c1cc(-c2ccc(O)c(O)c2)oc2cc(O[C@@H]3O[C@H](CO)[C@@H](O)[C@H](O)[C@H]3O)cc(O)c12 [GALUTEOLIN] | <7 | <7 | – | <7 | – | <7 | – | 500 (≈ 1120 µM) | – | – | – | – | <7 |

| SMILES | MIC (Pseudomonas aeruginosa [3]) [µg/mL] | MIC (Staphylococcus aureus [7]) [µg/mL] | MIC (Escherichia coli [8]) [µg/mL] | MIC (Proteus vulgaris [9]) [µg/mL] | MIC [11] [µg/mL] | inhibition zone (IZ) (Staphylococcus aureus [1]) [mm] | inhibition zone (IZ) (Proteus vulgaris [2]) [mm] | MBC (Pseudomonas aeruginosa [3]) [µg/mL] | inhibition zone (IZ) [4] [mm] | inhibition zone (IZ) (Escherichia coli [5]) [mm] | inhibition zone (IZ) (Klebsiella pneumoniae [6]) [mm] | MBC (Staphylococcus aureus [7]) [µg/mL] | MBC (Escherichia coli [8]) [µg/mL] | MBC (Proteus vulgaris [9]) [µg/mL] | MBC (Klebsiella pneumoniae [10]) [µg/mL] | MIC (Klebsiella pneumoniae [10]) [µg/mL] | MBC [11] [µg/mL] | inhibition zone (IZ) (Pseudomonas aeruginosa [12]) [mm] |
| --- | --- | --- | --- | --- | --- | --- | --- | --- | --- | --- | --- | --- | --- | --- | --- | --- | --- | --- |
| O=c1cc(-c2ccc(O)c(O)c2)oc2cc(O)cc(O)c12 [LUTEOLIN] | 125 (≈ 437 µM) | – | 125 (≈ 437 µM) | – | – | <7 | <7 | 500 (≈ 1750 µM) | <7 | – | – | – | 500 (≈ 1750 µM) | – | 500 (≈ 1750 µM) | 125 (≈ 437 µM) | – | – |
